Results on two substances are retold here after patent US20200383985A1, “Inhibitors of Protease Activated Receptor-2” (Endosome Therapeutics, Inc., priority 2017, published 2020).

The assay relates to mice. Kind of assay: Paw inflammation after intraplantar injection (paw thickness, neutrophil infiltration). It counts as in vivo, mouse. The following applies: WT mice; for paw thickness after intraplantar protease: calipers. From the text:
Proteases may induce pain by activating PAR2 on nociceptors or other cell types. To determine the contribution of PAR2 on nociceptors, mice were bred expressing PAR2 flanked by LoxP sites (Par2^lox/lox) with mice expressing Cre recombinase targeted to nociceptors using the NaV1.8 promoter (Scn10a) (Stirling L. C. et al., Pain 2005, 113(1-2): 27-36). Par2-NaV1.8 mice lacked immunoreactive PAR2 in NaV1.8-positive nociceptors (FIG. 1A). Whereas 31% (20 of 65) of small-diameter (<25 μm) DRG neurons from WT mice responded to trypsin (100 nM) with increased [Ca^2+]i, only 6% (3 of 51) of neurons from Par2-NaV1.8 mice responded (FIGS. 1B, 11A, and 11B). Nociception was assessed by measuring withdrawal responses to stimulation of the plantar surface of the hindpaw with von Frey filaments. […] In Par2-NaV1.8 mice, the initial responses were maintained, but responses after 120 min were diminished. […] Trypsin-induced inflammation was markedly diminished in Par2-NaV1.8 mice.
Mice were acclimatized to the experimental apparatus, room and investigator for 1-2 h on 2 successive days before studies. Investigators were blinded to the test agents. Mice were sedated (5% isoflurane) for intraplantar injections. Dy4a, Dy4 inact, PS2, PS2 inact (all 50 μM) or vehicle (0.2% DMSO in 0.9% NaCl) (10 μl) was injected into the left hindpaw. After 30 min, trypsin (10 or 80 nM), CS (2.5 or 5 μM) or NE (1.2 or 3.9 μM) (all 10 μl) was injected into the same hindpaw. Mechanical nociceptive responses were evaluated by examining paw withdrawal to stimulation of the plantar surface of the hind-paw with calibrated von Frey filaments. von Frey scores were measured in triplicate to establish a baseline for each animal on the day before experiments, and were then measured for up to 4 h after protease administration. To assess edema, paw thickness was measured at the site of injection between the plantar and the dorsal surfaces of the paw using digital calipers. […] Ly6G/Ly6c was detected with goat anti-rat horseradish peroxidase conjugated multimer incubated for 16 min.

With trypsin, the “paw thickness after intraplantar protease” value is “increased paw thickness”. In addition, the “neutrophil influx into the paw” value (after 4 h) is listed as “stimulated an influx of neutrophils”.

In the case of “NE: protease (elastase) activating PAR2 by biased mechanisms”, the “paw thickness after intraplantar protease” value is on record as “increased paw thickness”.
